Data reported in article PMC11910216, “Targeting ubiquitin-independent proteasome with small molecule increases susceptibility in pan-KRAS–mutant cancer models” (The Journal of Clinical Investigation, 2025).
Where “and” joins values, the source holds several entries; their conditions need not be identical. Equal values may be shown once.

Columns and labels:
[1] = tested on: SW620 cells; assay: Cell viability assay (CCK-8); type: cell-based; conditions: Homo sapiens, SW-620; SW620, Colon; Supplemental Table 4
Method: (§4) Cells were seeded into 96-well plates at a density of 1,500 cells per well. Cells were then cultivated at 37°C for different periods (0 hours, 24 hours, 48 hours, 72 hours, 96 hours). Upon measurement, 10 μL CCK-8 (Yeasen, 40203ES80) mixed with 100 μL serum-free medium was added to each well and incubated for 1 hour at 37°C. Plates were shaken, and optical density values were determined at 450 nm using a microplate reader (BioTek, Synergy Neo2).

[2] = tested on: Calu1 cells; assay: Cell viability assay (CCK-8); type: cell-based; conditions: Homo sapiens, Calu-1; Calu1 (KRAS-MUT); 72 hours
Method: as §4

[3] = tested on: Calu1-KRASG13D cells (G12C/G13D); assay: Cell viability assay (CellTiter-Glo), 72 hours, alone or in combination; conditions: for cell viability: Calu1-KRASG13D, in % (unit assumed)
Method: Cells were seeded into 96-well plates at a density of 1,500 cells per well. […] Upon measurement, 10 μL CCK-8 (Yeasen, 40203ES80) mixed with 100 μL serum-free medium was added to each well and incubated for 1 hour at 37°C. Plates were shaken, and optical density values were determined at 450 nm using a microplate reader (BioTek, Synergy Neo2).
Combination index was calculated using Compusyn software version 1.0, and the synergistic effects were determined by the Chou-Talalay method ([51]).
(A and B) Cell viability assays performed with Calu1 cells infected
with retrovirus packaging KRAS (G12C, G12C/G13D or G12C/Y96D).
measured with CellTiter-Glo.

[4] = tested on: Calu1-KRASY96D cells; assay: Colony formation assay, RLY01 and AMG510; type: cell-based, human
Method: (§1) Cells were equally seeded into 12-well plates at a density of 2,000 cells per well. Cultivated for 6–10 days, cells were fixed with 4% polyoxymethylene and stained with 0.2% crystal violet. Images of stained colonies were taken, and the numbers of the colonies were recorded and compared within different groups. Each experiment was representative of at least 3 independent experiments. […]
(§2) by using CompuSyn software (Version 1). The averages and error bars represent the mean ± SEM from three independent experiments. (E-H) Representative colony formation images of Calu1, Calu1- KRASG13D and Calu1- KRASY96D cells (E) and H358, H358- KRASG13D and H358- KRASY96D cells (G) cell with or without RLY01 and […]
(§3) controls. Each value represents mean ± SEM (n = 3). *p < 0.05, **p < 0.01, ***p < 0.001, ****p < 0.0001; p values were measured by two-way ANOVA with Tukey’s multiple-comparisons test.

[5] = tested on: Calu1-KRASG13D cells; assay: Colony formation assay, RLY01 and AMG510; type: cell-based, human
Method: as §1, §2, §3

[6] = tested on: H358-KRASG13D cells; assay: Colony formation assay, RLY01 and AMG510; type: cell-based, human
Method: as §1, §2, §3

[7] = tested on: H358-KRASY96D cells; assay: Colony formation assay, RLY01 and AMG510; type: cell-based, human
Method: as §1, §2, §3

In the case of COc1ccc(C2C(C#N)=C(N)Oc3[nH]ncc32)cc1COc1ccc(Cl)cc1 (stereo not drawn) [RLY01], the IC50 [1] is reported as 5.97 µM, the IC50 [2] is reported as 10.3 µM and the cell viability ([3]; 0.390625 μM) is reported as 99.8959 and 99.2847. The cell viability ([3]; 0.78125 μM) was 107.004 and 113.123, the cell viability ([3]; 1.5625 μM) was 108.207 and 97.3316 and the cell viability ([3]; 3.125 μM) was 105.709 and 89.2533. The cell viability ([3]; 6.25 μM) was 86.4232 and 85.9383, the cell viability ([3]; 12.5 μM) was 57.6642 and 58.1824 and the cell viability ([3]; 25 μM) was 16.1234 and 17.3458. For the same compound, the cell viability ([3]; 50 μM) was 9.294 and 9.4468, the cell viability ([3]; 100 μM) was 9.387 and 9.3007 and the viability at 0.390625 µM ([3]; Homo sapiens, read-out: cell viability, Calu1-KRASG13D, 0.390625 μM) was 114%. It also gave a viability at 0.78125 µM ([3]; Homo sapiens, read-out: cell viability, Calu1-KRASG13D, 0.78125 μM) of 110%, a viability at 1.5625 µM ([3]; Homo sapiens, read-out: cell viability, Calu1-KRASG13D, 1.5625 μM) of 102% and a viability at 3.125 µM ([3]; Homo sapiens, read-out: cell viability, Calu1-KRASG13D, 3.125 μM) of 94%. It also gave a viability at 6.25 µM ([3]; Homo sapiens, read-out: cell viability, Calu1-KRASG13D, 6.25 μM) of 83.6%, a viability at 12.5 µM ([3]; Homo sapiens, read-out: cell viability, Calu1-KRASG13D, 12.5 μM) of 57.3% and a viability at 25 µM ([3]; Homo sapiens, read-out: cell viability, Calu1-KRASG13D, 25 μM) of 16.5%. The viability at 50 µM ([3]; Homo sapiens, read-out: cell viability, Calu1-KRASG13D, 50 μM) was 9.31%, the viability at 100 µM ([3]; Homo sapiens, read-out: cell viability, Calu1-KRASG13D, 100 μM) was 9.1% and the “colony formation relative to DMSO” value [4] was 40.6617 and 32.1848 and 24.6924. The “colony formation relative to DMSO” value [5] was 40.0491 and 33.3365 and 29.5412, the “colony formation relative to DMSO” value [6] was 21.187 and 26.3594 and 20.6399 and the “colony formation relative to DMSO” value [7] was 23.2509 and 24.3365 and 19.813.
